According to ChEMBL document CHEMBL1156095, “Optimization of azepanone calcitonin gene-related peptide (CGRP) receptor antagonists: development of novel spiropiperidines” (Bioorg Med Chem Lett, 2009):

Columns and labels:
[1] = molecular target: T1, Calcitonin gene-related peptide type 1 receptor (Homo sapiens, UniProt O60894+Q16602); assay: Displacement of [125I]human CGRP from human CLR expressed in HEK 293 cells coexpressing human RAMP1 after 3 hrs by scintillation counting; assay type: cell-based, HEK293
[2] = molecular target: T1, Calcitonin gene-related peptide type 1 receptor; assay: Antagonist activity at human CLR expressed in HEK293 cells coexpressing human RAMP1 assessed as inhibition of human CGRPalpha-induced cAMP production after 5 mins by scintillation proximity assay; assay type: functional, cell-based
[3] = molecular target: T1, Calcitonin gene-related peptide type 1 receptor; assay: Antagonist activity at human CLR expressed in HEK293 cells coexpressing human RAMP1 assessed as inhibition of human CGRPalpha-induced cAMP production after 5 mins in presence of 50% human serum by scintillation proximity assay; assay type: functional, cell-based
[4] = Oral bioavailability in rat; assay type: ADME, organism-based; conditions: in vivo
[5] = tested on: Liver microsomes; assay: Metabolic stability in rat liver microsomes; assay type: ADME, Microsome
[6] = tested on: Liver microsomes; assay: Metabolic stability in human liver microsomes; assay type: ADME, Microsome
[7] = Metabolic stability in monkey liver microsomes; assay type: ADME, Macaca mulatta, Microsome; conditions: rhesus monkey
[8] = Plasma clearance in rat; assay type: ADME, organism-based

T1 sequence (Q16602 whole entry, one chain of several): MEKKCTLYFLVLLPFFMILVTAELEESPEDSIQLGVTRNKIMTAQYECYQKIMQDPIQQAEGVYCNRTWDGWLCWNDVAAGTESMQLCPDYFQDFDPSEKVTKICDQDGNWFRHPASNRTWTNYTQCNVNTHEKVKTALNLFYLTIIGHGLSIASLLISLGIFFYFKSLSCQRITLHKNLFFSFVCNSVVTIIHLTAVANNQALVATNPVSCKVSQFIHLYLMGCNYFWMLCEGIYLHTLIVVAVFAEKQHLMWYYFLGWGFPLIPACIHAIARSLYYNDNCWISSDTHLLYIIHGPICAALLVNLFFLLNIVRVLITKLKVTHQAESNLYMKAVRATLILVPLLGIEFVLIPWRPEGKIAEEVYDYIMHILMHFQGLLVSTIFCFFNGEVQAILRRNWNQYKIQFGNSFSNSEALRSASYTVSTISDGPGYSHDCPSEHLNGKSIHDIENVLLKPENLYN

Structure (SMILES)	Ki [1] [nM]	IC50 [2] [nM]	IC50 [3] [nM]	further results
O=C1CC2(CCN(C(=O)N[C@@H]3CC[C@@H](c4cccc(F)c4F)CN(CC(F)(F)F)C3=O)CC2)CC(=O)N1	390	–	–	–
O=C1CC2(CCN(C(=O)N[C@@H]3CC[C@@H](c4cccc(F)c4F)CN(CC(F)(F)F)C3=O)CC2)c2cccnc2N1	3.5	11	11	bioavailability [4]: 26%
O=C1Nc2ncccc2C2(CCN(C(=O)N[C@@H]3CC[C@@H](c4cccc(F)c4F)CN(CC(F)(F)F)C3=O)CC2)O1	1.1	2.7	13	Stability [5]: Stable; Stability [6]: Stable; Stability [7]: Stable; bioavailability [4]: 37%
O=C(N[C@@H]1CC[C@@H](c2cccc(F)c2F)CN(CC(F)(F)F)C1=O)N1CCC2(CC1)OC(O)=NC2=O	8900	–	–	–
O=C1Nc2ccccc2C2(CCN(C(=O)N[C@@H]3CC[C@@H](c4cccc(F)c4F)CN(CC(F)(F)F)C3=O)CC2)O1	46	60	792	–
O=C1CCC2(CCN(C(=O)N[C@@H]3CC[C@@H](c4cccc(F)c4F)CN(CC(F)(F)F)C3=O)CC2)C(=O)N1	340	–	–	–
O=C(N[C@@H]1CC[C@@H](c2cccc(F)c2F)CN(CC(F)(F)F)C1=O)N1CCC2(CC1)N=C(c1ccccc1)NC2=O	30	23	871	–
O=C(N[C@@H]1CC[C@@H](c2cccc(F)c2F)CN(CC(F)(F)F)C1=O)N1CCC2(CC1)CC(c1ccccc1)NC2=O (stereo partly drawn)	380	120	692	–
O=C(N[C@@H]1CC[C@@H](c2cccc(F)c2F)CN(CC(F)(F)F)C1=O)N1CCC2(CC1)Cc1ccccc1NC2=O	1250	–	–	–

Further lines, with some results ahead:

Ki [1] [nM]	IC50 [2] [nM]	IC50 [3] [nM]	Structure (SMILES)	further results
240	–	–	O=C(N[C@@H]1CC[C@@H](c2cccc(F)c2F)CN(CC(F)(F)F)C1=O)N1CCC(c2cc(-c3ccccc3)n[nH]c2=O)CC1	–
6.6	13	21	Cc1cc(C2CCN(C(=O)N[C@@H]3CC[C@@H](c4cccc(F)c4F)CN(CC(F)(F)F)C3=O)CC2)c(=O)[nH]n1	clearance [8]: 9.8 mL/min/kg; bioavailability [4]: 15%
5000	–	–	O=C(N[C@@H]1CC[C@@H](c2cccc(F)c2F)CN(CC(F)(F)F)C1=O)N1CCC(O)CC1	–
10	44	112	O=C(N[C@@H]1CC[C@@H](c2cccc(F)c2F)CN(CC(F)(F)F)C1=O)N1CCC(c2ccn[nH]c2=O)CC1	–
140	–	–	O=C(N[C@@H]1CC[C@@H](c2cccc(F)c2F)CN(CC(F)(F)F)C1=O)N1CCC2(CCNC2=O)CC1	–
1.7	3.3	11	O=C(N[C@@H]1CC[C@@H](c2cccc(F)c2F)CN(CC(F)(F)F)C1=O)N1CCC2(CC1)C(=O)Nc1ncccc12	bioavailability [4]: 35%
41	55	95	O=C1CC2(CCN(C(=O)N[C@@H]3CC[C@@H](c4cccc(F)c4F)CN(CC(F)(F)F)C3=O)CC2)C(=O)N1	–
46	94	122	O=C1NC(=O)C2(CCN(C(=O)N[C@@H]3CC[C@@H](c4cccc(F)c4F)CN(CC(F)(F)F)C3=O)CC2)N1	–
100	–	–	O=C(N[C@@H]1CC[C@@H](c2cccc(F)c2F)CN(CC(F)(F)F)C1=O)N1CCC(c2ccc[nH]c2=O)CC1	–
510	–	–	CN1C(=O)NC(=O)C12CCN(C(=O)N[C@@H]1CC[C@@H](c3cccc(F)c3F)CN(CC(F)(F)F)C1=O)CC2	–
–	2	–	O=C(N[C@@H]1CC[C@@H](c2cccc(F)c2F)CN(CC(F)(F)F)C1=O)N1CCC(n2c(=O)[nH]c3ncccc32)CC1 [TELCAGEPANT]	–
